# Measured values published in article PMC11855355, “In-Situ Purification of Non-Ribosomal Peptide Synthetases Assembly Line for Structural and Biochemical Studies” (International Journal of Molecular Sciences, 2025).
# Molecular target: T1, PvdL (Pseudomonas putida, UniProt Q88F56)
# T1 construct: monomer
# Experiment: LC/HRMS of product N-myristoyl-L-glutamic acid after base hydrolysis
# Assay type: biochemical
# Settings: 1 uM PvdL, 200 uM myristic acid, 1 mM L-Glu, 5 mM ATP, 10 mM MgCl2, pH 7.6, 25 °C; first two modules; product covalent on PvdL
# T1 sequence (Q88F56 1-4317): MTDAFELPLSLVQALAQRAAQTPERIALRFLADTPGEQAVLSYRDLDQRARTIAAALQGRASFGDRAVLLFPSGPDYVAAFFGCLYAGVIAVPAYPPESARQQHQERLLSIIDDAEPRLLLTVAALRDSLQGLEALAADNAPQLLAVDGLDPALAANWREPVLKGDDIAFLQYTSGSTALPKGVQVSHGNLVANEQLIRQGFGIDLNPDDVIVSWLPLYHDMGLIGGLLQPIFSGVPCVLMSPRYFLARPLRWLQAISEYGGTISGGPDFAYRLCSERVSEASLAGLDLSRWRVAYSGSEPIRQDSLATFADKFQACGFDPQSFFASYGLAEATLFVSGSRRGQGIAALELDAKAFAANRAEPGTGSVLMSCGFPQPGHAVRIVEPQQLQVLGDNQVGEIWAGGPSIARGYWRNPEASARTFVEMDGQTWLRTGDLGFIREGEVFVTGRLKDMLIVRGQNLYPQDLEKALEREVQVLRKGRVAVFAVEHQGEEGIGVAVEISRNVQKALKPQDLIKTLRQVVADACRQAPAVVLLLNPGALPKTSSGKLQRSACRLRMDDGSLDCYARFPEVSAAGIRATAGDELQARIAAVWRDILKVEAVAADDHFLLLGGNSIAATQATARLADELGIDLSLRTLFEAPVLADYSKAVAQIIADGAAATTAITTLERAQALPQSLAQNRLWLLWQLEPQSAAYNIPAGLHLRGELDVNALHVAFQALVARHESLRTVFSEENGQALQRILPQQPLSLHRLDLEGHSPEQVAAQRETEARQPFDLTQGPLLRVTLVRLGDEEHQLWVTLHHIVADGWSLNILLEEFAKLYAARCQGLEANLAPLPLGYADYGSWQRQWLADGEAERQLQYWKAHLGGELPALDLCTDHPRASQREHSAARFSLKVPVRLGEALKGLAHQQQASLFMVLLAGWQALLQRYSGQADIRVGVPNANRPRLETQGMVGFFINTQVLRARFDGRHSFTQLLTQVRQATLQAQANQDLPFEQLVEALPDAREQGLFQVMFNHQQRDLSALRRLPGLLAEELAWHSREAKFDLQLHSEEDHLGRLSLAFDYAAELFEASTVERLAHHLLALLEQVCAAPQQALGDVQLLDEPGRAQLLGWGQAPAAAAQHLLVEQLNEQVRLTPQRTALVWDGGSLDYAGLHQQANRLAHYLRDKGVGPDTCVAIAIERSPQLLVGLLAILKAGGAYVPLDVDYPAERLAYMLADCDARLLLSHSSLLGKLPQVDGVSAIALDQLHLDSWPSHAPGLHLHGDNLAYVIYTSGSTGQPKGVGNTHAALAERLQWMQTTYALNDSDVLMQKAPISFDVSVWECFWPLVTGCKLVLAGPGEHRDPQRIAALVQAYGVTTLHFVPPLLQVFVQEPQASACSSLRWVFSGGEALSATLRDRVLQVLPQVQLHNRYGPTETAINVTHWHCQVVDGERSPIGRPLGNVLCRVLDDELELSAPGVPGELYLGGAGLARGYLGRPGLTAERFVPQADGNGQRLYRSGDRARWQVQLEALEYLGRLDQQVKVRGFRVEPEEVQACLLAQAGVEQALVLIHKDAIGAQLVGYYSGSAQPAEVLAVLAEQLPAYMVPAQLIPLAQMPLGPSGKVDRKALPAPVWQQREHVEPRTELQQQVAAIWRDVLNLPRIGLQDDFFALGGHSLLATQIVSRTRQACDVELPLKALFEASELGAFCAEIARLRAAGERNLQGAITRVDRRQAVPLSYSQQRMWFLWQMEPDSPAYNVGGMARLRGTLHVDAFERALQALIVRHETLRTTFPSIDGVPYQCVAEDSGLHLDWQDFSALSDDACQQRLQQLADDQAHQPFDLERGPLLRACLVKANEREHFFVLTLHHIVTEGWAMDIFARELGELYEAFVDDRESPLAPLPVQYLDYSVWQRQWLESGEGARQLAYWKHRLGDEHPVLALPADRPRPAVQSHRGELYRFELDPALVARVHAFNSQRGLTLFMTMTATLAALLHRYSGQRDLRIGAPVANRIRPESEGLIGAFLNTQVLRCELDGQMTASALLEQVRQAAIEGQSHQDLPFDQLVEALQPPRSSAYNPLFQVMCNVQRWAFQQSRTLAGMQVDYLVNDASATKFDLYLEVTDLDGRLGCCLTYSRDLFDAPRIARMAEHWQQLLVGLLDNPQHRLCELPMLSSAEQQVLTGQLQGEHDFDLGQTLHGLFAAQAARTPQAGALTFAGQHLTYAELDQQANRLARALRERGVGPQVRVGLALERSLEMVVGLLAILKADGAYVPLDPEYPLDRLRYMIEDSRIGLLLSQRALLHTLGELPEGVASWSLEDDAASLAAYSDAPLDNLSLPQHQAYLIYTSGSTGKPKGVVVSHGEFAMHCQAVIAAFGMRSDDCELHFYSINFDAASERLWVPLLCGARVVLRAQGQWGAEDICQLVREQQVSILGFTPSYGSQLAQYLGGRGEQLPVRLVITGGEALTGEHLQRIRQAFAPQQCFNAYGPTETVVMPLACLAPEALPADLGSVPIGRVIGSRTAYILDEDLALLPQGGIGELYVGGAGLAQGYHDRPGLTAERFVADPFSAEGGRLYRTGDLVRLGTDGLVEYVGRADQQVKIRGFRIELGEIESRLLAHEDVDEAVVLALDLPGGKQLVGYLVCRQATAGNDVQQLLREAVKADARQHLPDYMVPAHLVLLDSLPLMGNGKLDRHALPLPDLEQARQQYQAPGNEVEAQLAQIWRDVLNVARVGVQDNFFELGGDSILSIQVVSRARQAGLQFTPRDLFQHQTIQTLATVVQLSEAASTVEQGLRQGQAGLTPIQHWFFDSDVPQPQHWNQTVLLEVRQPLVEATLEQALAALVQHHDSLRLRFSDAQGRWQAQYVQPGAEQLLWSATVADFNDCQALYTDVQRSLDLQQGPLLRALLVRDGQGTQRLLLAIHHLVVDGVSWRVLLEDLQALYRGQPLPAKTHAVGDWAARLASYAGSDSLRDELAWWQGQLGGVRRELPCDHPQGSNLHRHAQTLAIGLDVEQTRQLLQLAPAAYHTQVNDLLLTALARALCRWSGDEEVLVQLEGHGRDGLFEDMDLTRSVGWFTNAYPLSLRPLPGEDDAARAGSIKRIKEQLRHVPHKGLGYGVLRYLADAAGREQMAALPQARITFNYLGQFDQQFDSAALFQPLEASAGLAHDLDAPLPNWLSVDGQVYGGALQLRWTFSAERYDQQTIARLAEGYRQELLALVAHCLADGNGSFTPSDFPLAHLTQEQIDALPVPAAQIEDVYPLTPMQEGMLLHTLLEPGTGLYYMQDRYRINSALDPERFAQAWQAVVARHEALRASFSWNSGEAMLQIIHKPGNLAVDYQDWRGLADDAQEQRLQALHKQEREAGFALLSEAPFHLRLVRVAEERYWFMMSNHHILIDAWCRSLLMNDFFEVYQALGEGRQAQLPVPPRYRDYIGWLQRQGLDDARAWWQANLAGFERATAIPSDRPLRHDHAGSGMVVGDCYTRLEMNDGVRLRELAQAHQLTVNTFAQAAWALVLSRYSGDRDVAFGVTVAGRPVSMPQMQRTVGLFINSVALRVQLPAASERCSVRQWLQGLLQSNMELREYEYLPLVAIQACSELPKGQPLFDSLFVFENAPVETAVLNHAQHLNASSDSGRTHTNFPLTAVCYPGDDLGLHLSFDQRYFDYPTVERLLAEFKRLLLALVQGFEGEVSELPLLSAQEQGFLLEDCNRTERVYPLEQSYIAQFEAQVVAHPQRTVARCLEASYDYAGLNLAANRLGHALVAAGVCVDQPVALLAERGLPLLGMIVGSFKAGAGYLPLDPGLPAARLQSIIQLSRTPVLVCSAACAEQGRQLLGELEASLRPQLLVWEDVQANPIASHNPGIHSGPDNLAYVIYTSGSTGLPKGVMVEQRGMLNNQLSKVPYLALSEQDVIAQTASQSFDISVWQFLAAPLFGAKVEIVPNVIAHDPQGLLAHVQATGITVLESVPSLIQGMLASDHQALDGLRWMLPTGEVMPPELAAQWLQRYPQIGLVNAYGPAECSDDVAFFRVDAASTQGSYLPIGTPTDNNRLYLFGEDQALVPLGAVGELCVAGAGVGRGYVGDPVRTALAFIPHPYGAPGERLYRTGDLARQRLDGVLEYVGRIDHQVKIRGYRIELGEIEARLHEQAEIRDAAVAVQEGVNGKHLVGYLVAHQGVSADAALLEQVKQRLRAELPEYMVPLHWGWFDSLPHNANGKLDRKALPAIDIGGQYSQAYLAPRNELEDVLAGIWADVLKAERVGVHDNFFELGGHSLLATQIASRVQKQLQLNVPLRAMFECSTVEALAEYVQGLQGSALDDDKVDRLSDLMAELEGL
structure (smiles),measurement,value
N[C@@H](CCC(=O)O)C(=O)O [L-Glu],LC/HRMS of product N-myristoyl-L-glutamic acid after base hydrolysis,ATP-energy-dependent activation and condensation of myristic acid and glutamic acid
